Data from patent US8524911B2, “3-arylamino pyridine derivatives” (Merck Serono SA, priority 2004, dated 2013).

What was measured:
human MEK1 = human MEK1 (Homo sapiens, UniProt Q02750); experiment: MEK-1 Enzyme Assay (LANCE-HTRF); format: biochemical; conditions: 100 nM MEK1, 15 μM ATP, 300 nM ERK2, two hours; read-out: MEK inhibition
Experimental: Assay 1: MEK-1 Enzyme Assay (LANCE-HTRF)
The activity of the compounds of the present invitation may be determined by the following procedure; Inhibition of human MEK1 kinase activity was monitored with a homogenous, fluorescence based assay. The assay uses time resolved fluorescence resonance energy transfer to probe for phosphorylation of ERK1 by MEK1. The assay is carried out in low volume 96 well microtiterplates. […] After two hours, 5 nM Europium-anti-PY20 (Perkin Elmer) and 50 nM Anti-GST-Allophycocyanin (CisBio) in buffer containing 50 mM EDTA and 0.05% BSA are added and the reaction incubated for one hour in the dark. Time-resolved fluorescence is measured using a LJL-Analyst (Molecular Devices) with an excitation wavelength of 340 nm and an emission wavelength of 665 nm. The final concentration of DMSO is 2%.

[1] = tested on: human melanoma A375 cells; experiment: Tumor cell proliferation assay (ATP Lite), A375; format: cell-based; conditions: A-375, 96 h, 4 days
Experimental: (§1) Assay 2: Tumor Cell Proliferation Assays (ATP Lite)
(§2) Murine colon C26, human melanoma A375 and MeI5 or human pancreatic MiaPaCa-2 cells were plated in 96 well Corning white plates (1500 cells/well for C26, and 2000 cells/well for A375, and MiaPaCa-2) and cultured overnight at 37° C. in 5% CO2. Inhibitors were serially diluted in 100% DMSO and subsequently added to cells to reach a final concentration of 0.25% DMSO. The cells were incubated for 4 days in the presence of test compounds in cell growth media (DMEM with 10% fetal bovine serum, 2 mM glutamine for C26, and MiaPaCa-2, and RPMI with 10% fetal bovine serum, 2 mM glutamine for A375). Cell proliferation was quantitated using the ATP lite cell proliferation kit (Packard). Columns 4-6 show the concentration of compounds required to induce 50% cell death (IC50 in μM) of […]. With “+” meaning 3 μM<IC50≦10 μM and “++” IC50≦3 μM and “n.d.” means not determined. Few compounds were also tested on human melanoma cell MeI5.

[2] = tested on: human pancreatic MiaPaCa-2 cells; experiment: Tumor cell proliferation assay (ATP Lite), MiaPaCa-2; format: cell-based; conditions: MIA PaCa-2, 96 h, 4 days
Experimental: as §1, §2

Murine colon C26 cells = experiment: Tumor cell proliferation assay (ATP Lite), C26; format: cell-based; conditions: Mus musculus, 96 h, 4 days
Experimental: as §1, §2

Sequence of human MEK1 (Q02750 whole entry): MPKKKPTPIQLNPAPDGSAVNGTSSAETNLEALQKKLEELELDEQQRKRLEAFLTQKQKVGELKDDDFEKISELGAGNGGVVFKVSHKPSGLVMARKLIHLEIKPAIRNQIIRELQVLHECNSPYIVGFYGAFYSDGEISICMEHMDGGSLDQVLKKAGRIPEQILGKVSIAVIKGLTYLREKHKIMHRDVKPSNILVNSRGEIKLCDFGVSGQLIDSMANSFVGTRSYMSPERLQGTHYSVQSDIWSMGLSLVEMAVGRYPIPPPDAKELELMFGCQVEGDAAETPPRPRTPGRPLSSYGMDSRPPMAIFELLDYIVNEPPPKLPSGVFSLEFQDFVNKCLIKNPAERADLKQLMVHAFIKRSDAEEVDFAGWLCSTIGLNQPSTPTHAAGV

In the case of `COCCNC(=O)c1cc(Br)ncc1Nc1ccc(I)cc1F` [Example 87, 2-Bromo-5-(2-fluoro-4-iodo-phenylamino)-N-(2-methoxy-ethyl)-isonicotinamide], the IC50 (human MEK1) is reported as < 1000 nM, the IC50 [1] is reported as ≤ 3 µM and the IC50 [2] is reported as 3 to 10 µM.

Molecule `O=C(O)c1ccncc1Nc1ccc(SC(F)(F)F)cc1` [Example 119, 3-(4-Trifluoromethylsulfanyl-phenylamino)-isonicotinic acid] has an IC50 (human MEK1) of 1000 to 10000 nM.

For `CCONC(=O)c1cc[n+]([O-])cc1Nc1ccc(Br)cc1C` [Example 6, 3-[(4-Bromo-2-methylphenyl)amino]-N-ethoxyisonicotinamide 1-oxide], the IC50 (human MEK1) was 1000 to 10000 nM.

For `CC(C)C(C)NC(=O)c1ccncc1Nc1ccc(I)cc1F` (stereo not shown) [Example 62, N-(1,2-dimethylpropyl)-3-[(2-fluoro-4-iodophenyl)amino]-isonicotinamide], the IC50 (human MEK1) was < 1000 nM, the IC50 (Murine colon C26 cells) was 3 to 10 µM and the IC50 [1] was ≤ 3 µM.

`O=C(NOC1CCCCO1)c1ccncc1Nc1ccc(I)cc1F` (stereo not shown) [Example 84, 3-[(2-fluoro-4-iodophenyl)amino]-N-(tetrahydro-2H-pyran-2-yloxy)-isonicotin-amide] was tested, and the IC50 (human MEK1) was < 1000 nM, the IC50 (Murine colon C26 cells) was 3 to 10 µM and the IC50 [1] was ≤ 3 µM.

For `O=C(NOCc1c(F)c(F)c(F)c(F)c1F)c1ccncc1Nc1ccc(I)cc1F` [Example 103, 3-[(2-fluoro-4-iodophenyl)amino]-N-[(pentafluorobenzyl)oxy]-isonicotinamide], the IC50 (human MEK1) was < 1000 nM.

Molecule `COc1ccc(Nc2cnccc2C(=O)O)cc1` [Example 118, 3-(4-Methoxy-phenylamino)-isonicotinic acid] has an IC50 (human MEK1) of 1000 to 10000 nM.

`O=C(NCc1cc(F)cc(C(F)(F)F)c1)c1ccncc1Nc1ccc(I)cc1F` [Example 105, 3-[(2-fluoro-4-iodophenyl)amino]-N-[3-fluoro-5-(trifluoromethyl)-benzyl]isonicotinamide] was tested, and the IC50 (human MEK1) was < 1000 nM.

`O=C(N[C@H]1CCCC[C@@H]1O)c1ccncc1Nc1ccc(I)cc1F` (relative stereo) [Example 113, 3-(2-Fluoro-4-iodo-phenylamino)-N-(trans-2-hydroxy-cyclohexyl)-isonicotinamide] was tested, and the IC50 (human MEK1) was < 1000 nM.

In the case of `CN(CCO)C(=O)c1ccncc1Nc1ccc(I)cc1F` [Example 37], the IC50 (human MEK1) is reported as < 1000 nM.

In the case of `CCOC(CCCNC(=O)c1ccncc1Nc1ccc(I)cc1F)OCC` [Example 107, N-(4,4-diethoxybutyl)-3-[(2-fluoro-4-iodophenyl)amino]-isonicotinamide], the IC50 (human MEK1) is reported as < 1000 nM.

In the case of `CCC(CO)(CO)NC(=O)c1ccncc1Nc1ccc(I)cc1F` [Example 114, N-(1,1-Bis-hydroxymethyl-propyl)-3-(2-fluoro-4-iodo-phenyl-amino)-isonicotin-amide], the IC50 (human MEK1) is reported as < 1000 nM.

`CC(C)CONC(=O)c1ccncc1Nc1ccc(I)cc1Cl` [Example 78] was tested, and the IC50 (human MEK1) was < 1000 nM, the IC50 (Murine colon C26 cells) was 3 to 10 µM and the IC50 [1] was ≤ 3 µM.

`O=C(O)c1ccncc1Nc1ccc(Cl)cc1Cl` [Example 1, 3-[(2,4-Dichlorophenyl)amino]isonicotinic acid] was tested, and the IC50 (human MEK1) was < 1000 nM.

For `CC1(C)OC[C@H](CONC(=O)c2ccnc(Cl)c2Nc2ccc(I)cc2F)O1` [Example 38, 2-Chloro-N-{[(4R)-2,2-dimethyl-1,3-dioxolan-4-yl]methoxy}-3-(2-fluoro-4-iodo-phenylamino)-isonicotinamide], the IC50 (human MEK1) was 1000 to 10000 nM.

`O=C(NCc1cccc(I)c1)c1ccncc1Nc1ccc(I)cc1F` [Example 94, 3-[(2-fluoro-4-iodophenyl)amino]-N-(3-iodobenzyl)isonicotin-amide] was tested, and the IC50 (human MEK1) was < 1000 nM and the IC50 [1] was 3 to 10 µM.

`O=C(NCCCN1CCNCC1)c1ccncc1Nc1ccc(I)cc1F` [Example 116, 3-(2-Fluoro-4-iodo-phenylamino)-N-(3-piperazin-1-yl-propyl)-isonicotinamide] was tested, and the IC50 (human MEK1) was < 1000 nM.

`O=C(NC1CCc2ccccc21)c1ccncc1Nc1ccc(I)cc1F` (stereo not shown) [Example 59, N-(2,3-dihydro-1H-inden-1-yl)-3-[(2-fluoro-4-iodophenyl)amino]-isonicotinamide] was tested, and the IC50 (human MEK1) was 1000 to 10000 nM.

With `O=C(NO)c1ccncc1Nc1ccc(I)cc1F` [Example 66, 3-[(2-fluoro-4-iodophenyl)amino]-N-hydroxyisonicotinamide] the IC50 (human MEK1) was < 1000 nM and the IC50 [1] was ≤ 3 µM.

`O=C(O)c1ccnc(Cl)c1Nc1ccc(Br)cc1F` [Example 125, 3-(4-Bromo-2-fluoro-phenylamino)-2-chloro-isonicotinic acid] was tested, and the IC50 (human MEK1) was < 1000 nM.

`COc1ccc(-c2cc(C(=O)O)c(Nc3ccc(I)cc3F)cn2)cc1` [Example 52, 5-[(2-fluoro-4-iodophenyl)amino]-2-(4-methoxyphenyl)isonicotinic acid] gave an IC50 (human MEK1) of 1000 to 10000 nM.

For `Cc1cc(C(=O)O)c(Nc2ccc(I)cc2F)cn1` [Example 111, 5-[(2-fluoro-4-iodophenyl)amino]-2-methylisonicotinic acid], the IC50 (human MEK1) was < 1000 nM.

`CC1(C)OC[C@H](CONC(=O)c2cc(Br)ncc2Nc2ccc(I)cc2F)O1` [Example 69, 2-bromo-N-{[(4R)-2,2-dimethyl-1,3-dioxolan-4-yl]methoxy}-5-[(2-fluoro-4-iodophenyl)amino]isonicotinamide] was tested, and the IC50 (human MEK1) was < 1000 nM, the IC50 (Murine colon C26 cells) was 3 to 10 µM and the IC50 [1] was ≤ 3 µM.

In the case of `O=C(NCc1cccc(O)c1)c1ccncc1Nc1ccc(I)cc1F` [Example 106, 3-[(2-fluoro-4-iodophenyl)amino]-N-(3-hydroxybenzyl)-isonicotinamide], the IC50 (human MEK1) is reported as < 1000 nM.

Molecule `O=c1[nH]nc(-c2ccncc2Nc2ccc(Br)cc2F)o1` [Example 126, 5-[3-(4-Bromo-2-fluoro-phenylamino)-pyridin-4-yl]-3H-[1,3,4]oxadiazol-2-one] has an IC50 (human MEK1) of 1000 to 10000 nM.

With `O=C(O)c1ccncc1Nc1ccc(I)cc1` [Example 73, 3-(4-iodo-phenylamino)-isonicotinic acid] the IC50 (human MEK1) was < 1000 nM.

In the case of `COc1cccc(NC(=O)c2ccncc2Nc2ccc(I)cc2F)c1` [Example 104, 3-[(2-fluoro-4-iodophenyl)amino]-N-(3-methoxyphenyl)-isonicotinamide], the IC50 (human MEK1) is reported as < 1000 nM.

In the case of `O=C(NC1(CO)CCCC1)c1ccncc1Nc1ccc(I)cc1F` [Example 110, 3-(2-Fluoro-4-iodo-phenylamino)-N-(1-hydroxymethyl-cyclo-pentyl)-isonicotinamide], the IC50 (human MEK1) is reported as < 1000 nM.

`CC1(C)OC[C@@H](CONC(=O)c2ccncc2Nc2ccc(I)cc2F)O1` [Example 63, N-{[(4S)-2,2-dimethyl-1,3-dioxolan-4-yl]methoxy}-3-[(2-fluoro-4-iodophenyl)amino]isonicotinamide] was tested, and the IC50 (human MEK1) was < 1000 nM and the IC50 [1] was ≤ 3 µM.

In the case of `O=C(NC1CCCCC1)c1ccncc1Nc1ccc(I)cc1F` [Example 61, N-cyclohexyl-3-[(2-fluoro-4-iodophenyl)amino]isonicotinamide], the IC50 (human MEK1) is reported as < 1000 nM and the IC50 [1] is reported as 3 to 10 µM.

For `O=C(NCc1ccc(F)cc1)c1ccncc1Nc1ccc(I)cc1F` [Example 108, N-(4-Fluoro-benzyl)-3-(2-fluoro-4-iodo-phenylamino)-iso-nicotinamide], the IC50 (human MEK1) was < 1000 nM.

With `Cc1cc(I)ccc1Nc1cnccc1C(=O)O` [Example 3, 3-[(4-Iodo-2-methylphenyl)amino]isonicotinic acid] the IC50 (human MEK1) was < 1000 nM.

`CC1(C)OC[C@H](CONC(=O)c2cc[n+]([O-])cc2Nc2ccc(I)cc2F)O1` [Example 89, N-(2,2-Dimethyl-[1,3]dioxolan-4-ylmethoxy)-3-(2-fluoro-4-iodo-phenylamino)-1-oxy-isonicotinamide] showed an IC50 (human MEK1) of 1000 to 10000 nM.

`Cc1nccc(C(=O)O)c1Nc1ccc(I)cc1F` [Example 95, 3-(2-Fluoro-4-iodo-phenylamino)-2-methyl-isonicotinic acid] was tested, and the IC50 (human MEK1) was < 1000 nM.

`CCONC(=O)c1ccncc1Nc1ccc(Br)cc1F` [Example 121, 3-[(4-Bromo-2-fluorophenyl)amino]-N-ethoxyisonicotinamide] was tested, and the IC50 (human MEK1) was < 1000 nM.

`C#Cc1ccc(Nc2cnccc2C(=O)NOC[C@H](O)CO)c(Cl)c1` [Example 54, 3-(2-Chloro-4-ethynyl-phenylamino)-N-(2,3-dihydroxy-propoxy)-isonicotinamide] showed an IC50 (human MEK1) of 1000 to 10000 nM and an IC50 [1] of 3 to 10 µM.

For `O=C(NCC(F)(F)F)c1ccncc1Nc1ccc(I)cc1F` [Example 109, 3-(2-Fluoro-4-iodo-phenylamino)-N-(2,2,2-trifluoro-ethyl)-isonicotinamide], the IC50 (human MEK1) was < 1000 nM.

`Cc1cc(Br)ccc1Nc1cnccc1C(=O)O` [Example 2, 3-[(4-Bromo-2-methylphenyl)amino]isonicotinic acid] was tested, and the IC50 (human MEK1) was < 1000 nM.

For `NC(=O)[C@H](CO)NC(=O)c1ccncc1Nc1ccc(I)cc1F` [Example 112, N-(1-(S)-Carbamoyl-2-hydroxy-ethyl)-3-(2-fluoro-4-iodo-phenylamino)-isonicotinamide], the IC50 (human MEK1) was < 1000 nM.

`CN(C)c1ccc(-c2cc(C(=O)O)c(Nc3ccc(I)cc3F)cn2)cc1` [Example 57, 2-[4-(dimethylamino)phenyl]-5-[(2-fluoro-4-iodophenyl)amino]-isonicotinic acid] gave an IC50 (human MEK1) of 1000 to 10000 nM.
